ChEMBL document CHEMBL1201862, “PubChem BioAssay data set” (2004)
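All cell lines were grown in 96-well plates and treated with compound for 48 hours. At the GI50, growth is halved.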 Calls of active or inactive are those of the source. Rule as the data show it: active = GI50 up to about 1.1 µM and inactive = higher.

Legend:
Assay in all cases: inhibition of tumour cell growth, NCI panel, 48 h
COLO 205 = tested on: COLO 205
NCI-H23 = tested on: NCI-H23
M14 = tested on: M14
KM12 = tested on: KM12
HCC 2998 = tested on: HCC 2998
TK-10 = tested on: TK-10
UACC-257 = tested on: UACC-257
SF-268 = tested on: SF-268
OVCAR-4 = tested on: OVCAR-4
ACHN = tested on: ACHN
CAKI-1 = tested on: CAKI-1
MCF7 = tested on: MCF7
UO-31 = tested on: UO-31
SW-620 = tested on: SW-620
RXF 393 = tested on: RXF 393
U-251 = tested on: U-251
NCI-H226 = tested on: NCI-H226
LOX IMVI = tested on: LOX IMVI
OVCAR-8 = tested on: OVCAR-8
SR = tested on: SR

Measured: GI50

COc1cc2oc(-c3ccc4c(c3)OCO4)c(OC)c(=O)c2c(O)c1OC
inactive: COLO 205 > 50 µM | NCI-H23 35.6 µM | M14 > 50 µM | KM12 > 50 µM | HCC 2998 > 50 µM | TK-10 > 50 µM | UACC-257 > 50 µM | SF-268 29.4 µM | OVCAR-4 > 50 µM | ACHN > 50 µM | CAKI-1 > 50 µM | MCF7 > 50 µM | UO-31 > 50 µM | SW-620 > 50 µM | RXF 393 > 50 µM | U-251 18.9 µM | NCI-H226 > 50 µM | LOX IMVI > 50 µM | OVCAR-8 > 50 µM

CC(=O)OCC1OC(Oc2cc(C)c(O)cc2C/C=C(\C)CC/C=C(\C)C[C@@H](C=C(C)C)OC(C)=O)C(O)C(OC(C)=O)C1OC(C)=O (stereo partly drawn)
inactive: COLO 205 9.38 µM | NCI-H23 23.3 µM | M14 23.3 µM | KM12 15.7 µM | HCC 2998 16.9 µM | TK-10 22.9 µM | UACC-257 10 µM | SF-268 28.2 µM | OVCAR-4 23.6 µM | ACHN 20 µM | CAKI-1 > 50 µM | MCF7 16 µM | UO-31 18 µM | SW-620 23.6 µM | RXF 393 12 µM | U-251 25.5 µM | LOX IMVI 13.9 µM | OVCAR-8 16.1 µM

COC(=O)Nc1nc2cc(S(=O)(=O)Nc3ccccn3)ccc2[nH]1
inactive: COLO 205 32.7 µM | NCI-H23 50.1 µM | M14 78.9 µM | KM12 32.1 µM | TK-10 33.3 µM | UACC-257 17.7 µM | SF-268 72.6 µM | OVCAR-4 54.1 µM | ACHN 63 µM | SR 21.1 µM | CAKI-1 47 µM | MCF7 28.6 µM | UO-31 76 µM | SW-620 17.1 µM | RXF 393 39.6 µM | U-251 67.5 µM | NCI-H226 36.3 µM | LOX IMVI 51.8 µM | OVCAR-8 46.5 µM

O=C(OCc1ccccc1)N1CCNCCNCCN(C(=O)OCc2ccccc2)CCNCC1
inactive: COLO 205 13.6 µM | M14 16.6 µM | KM12 29.6 µM | TK-10 24.8 µM | UACC-257 16.5 µM | OVCAR-4 41 µM | ACHN 39.9 µM | SR 14.1 µM | CAKI-1 20 µM | MCF7 17.8 µM | UO-31 12.7 µM | SW-620 17.1 µM | U-251 17.9 µM | NCI-H226 > 100 µM | LOX IMVI 16.3 µM | OVCAR-8 17.3 µM

Cn1c2ccccc2c(=O)c2c(O)cc3c(c21)C=CC1(CCCCC1)O3
inactive: COLO 205 > 10 µM | NCI-H23 > 10 µM | M14 > 10 µM | KM12 1.62 µM | HCC 2998 > 10 µM | TK-10 > 10 µM | UACC-257 > 10 µM | SF-268 > 10 µM | OVCAR-4 > 10 µM | ACHN > 10 µM | CAKI-1 > 10 µM | MCF7 9.1 µM | UO-31 > 10 µM | SW-620 > 10 µM | RXF 393 > 10 µM | U-251 > 10 µM | NCI-H226 5.89 µM | LOX IMVI > 10 µM | OVCAR-8 > 10 µM

COc1cc([N+](=O)[O-])c(S(=O)(=O)O)cc1NS(=O)(=O)c1ccc(C)cc1
inactive: COLO 205 > 100 µM | NCI-H23 > 100 µM | M14 > 100 µM | KM12 > 100 µM | TK-10 > 100 µM | UACC-257 > 100 µM | SF-268 > 100 µM | OVCAR-4 > 100 µM | ACHN > 100 µM | SR > 100 µM | CAKI-1 > 100 µM | MCF7 > 100 µM | UO-31 > 100 µM | SW-620 > 100 µM | U-251 > 100 µM | NCI-H226 > 100 µM | LOX IMVI > 100 µM | OVCAR-8 > 100 µM

Oc1[nH]c(NCc2ccc(Cl)cc2)nc2ncnc1-2
inactive: COLO 205 > 100 µM | NCI-H23 > 100 µM | M14 > 100 µM | KM12 > 100 µM | HCC 2998 > 100 µM | TK-10 > 100 µM | UACC-257 > 100 µM | SF-268 > 100 µM | OVCAR-4 > 100 µM | ACHN > 100 µM | CAKI-1 > 100 µM | MCF7 87.1 µM | UO-31 > 100 µM | SW-620 > 100 µM | RXF 393 > 100 µM | U-251 > 100 µM | NCI-H226 > 100 µM | LOX IMVI > 100 µM | OVCAR-8 > 100 µM
